PMC3746831 (Pharmaceutical research, 2013)
Read-outs that look alike come from different tables or passages of the source.

Columns and labels:
[1] = tested on: Akata cells; experiment: in vitro; format: cell-based, human
[2] = Enzymatic hydrolysis in cornea homogenate; details: 100 μM prodrug, 0.5mg/mL protein, 34°C
[3] = tested on: Human Cytomegalovirus (HCMV), AD169 strain; experiment: Plaque reduction assay for HCMV in HFF cells; format: cell-based; details: for EC50: read-out: HCMV EC50, control is GCV; for EC90: read-out: HCMV EC90, control is GCV
[4] = tested on: Herpes Simplex Virus 1 (HSV-1), E-377 strain; experiment: Plaque reduction assay for HSV-1 in HFF cells; format: cell-based; details: for EC50: read-out: HSV-1 EC50; for EC90: read-out: HSV-1 EC90
[5] = tested on: HFF cells; experiment: in vitro; format: cell-based, human
[6] = tested on: Epstein-Barr Virus (EBV), Akata; experiment: DNA hybridization assay for EBV in Akata cells; format: cell-based; details: 72 h; for EC50: read-out: EBV EC50; for EC90: read-out: EBV EC90
[7] = tested on: Herpes Simplex Virus 2 (HSV-2), MS strain; experiment: Plaque reduction assay for HSV-2 in HFF cells; format: cell-based; details: for EC50: read-out: HSV-2 EC50; for EC90: read-out: HSV-2 EC90
[8] = tested on: HCEC cells; experiment: Cellular uptake study on HCEC cells; format: cell-based, human; details: sodium free DPBS, 37°C, relative to uptake with sodium
[9] = Enzymatic hydrolysis in iris-ciliary body; details: 100 μM prodrug, 34°C
[10] = Enzymatic hydrolysis in lens homogenate; details: 100 μM prodrug, 34°C
[11] = in vitro; format: cell-based, human; details: human
[12] = in vitro; format: cell-based, human; details: human; remark: listed apart in the source
[13] = Akata cells, viral DNA accumulation
[14] = human gammaherpesvirus 4, Akata

Compound | CC50 [1] | Cornea Rate constant [2] | EC50 [3] | EC90 [3] | EC50 ([4]; E-377 strain, HFF cells) | EC90 ([4]; E-377 strain, HFF cells) | CC50 [5] | EC50 [6, 13] | EC90 [6, 13] | EC50 ([7]; MS strain, HFF cells) | EC90 ([7]; MS strain, HFF cells) | Uptake in the presence of a sodium free buffer (reduced to) [8] | CC50 [12] | also measured
CCCCCCC(CCCCCCCCCCC(=O)OCCOCn1cnc2c(=O)[nH]c(N)nc21)OC(=O)CCCC[C@@H]1SC[C@@H]2NC(=O)N[C@@H]21 (stereo partly shown) [B-12HS-ACV, Biotin-12hydroxystearicacid-acyclovir] | > 60 µM | 1.78 ± 0.29 k×10^3 min^−1 mg protein^-1 | > 300 µM | > 300 µM | < 0.096 µM | 0.42 µM | > 300 µM | 37.2 µM | > 60 µM | < 0.096 µM | 4.65 µM | ~41% |  | 
CCCCCCC(O)CC=CCCCCCCCC(=O)OCCOCn1cnc2c(=O)[nH]c(N)nc21 (stereo not shown) [R-ACV, Ricinoleicacid-acyclovir] | > 60 µM |  | 46.5 µM | > 300 µM | 8.3 µM | 168 µM | > 300 µM | 10.7 µM | 49.5 µM | 3.4 µM | 8.89 µM |  |  | 
Nc1nc2c(ncn2COCCOC(=O)CCCC[C@@H]2SC[C@@H]3NC(=O)N[C@@H]32)c(=O)[nH]1 [B-ACV, Biotin-acyclovir] | > 60 µM | 1.99 ± 0.21 k×10^3 min^−1 mg protein^-1 |  |  | 182 µM | > 300 µM |  | 22.3 µM | 52.8 µM | > 300 µM | > 300 µM | ~45% |  | Degradation in ICB homogenate (in words) [9]: complete degradation; Cornea Half-life [2]: 5.80 ± 0.49 h; Degradation in lens homogenate (in words) [10]: complete degradation
Nc1nc2c(ncn2COCCO)c(=O)[nH]1 [ACV, Acyclovir, reference compound] |  |  |  |  |  |  |  |  |  |  |  |  | > 100 µM | CC50 [11]: > 100 µM; EC50 ([4]; Human alphaherpesvirus 1, HFF): 3.43 µM; EC90 ([4]; Human alphaherpesvirus 1, HFF): > 100 µM; CC50 ([5]; human): > 100 µM; EC50 [6, 14]: 12.4 µM; EC90 [6, 14]: 67.3 µM; EC50 ([7]; Human alphaherpesvirus 2, HFF): 5.98 µM; EC90 ([7]; Human alphaherpesvirus 2, HFF): > 100 µM
Nc1nc(O)c2ncn(COC(CO)CO)c2n1 [GCV, Ganciclovir, reference compound] |  |  |  |  |  |  |  |  |  |  |  |  | > 100 µM | 
CCCCCCC(O)CCCCCCCCCCC(=O)OCCOCn1cnc2c(=O)[nH]c(N)nc21 (stereo not shown) [12HS-ACV, 12hydroxystearicacid-acyclovir] | 47.3 µM |  | 101 µM | 137 µM | 1.16 µM | 6.24 µM |  | 35.8 µM | 55 µM | 0.41 µM | > 300 µM |  |  | Increase in antiviral activity against HSV-1 relative to ACV (by EC50) ([4]; from EC50 values): greater than 3 fold; Increase in antiviral activity against HSV-2 relative to ACV (by EC50) ([7]; from EC50 values): > 15 fold
